Experimental data reported in patent publication US12636285B2 (ViiV Healthcare Company, priority 2019, dated 2026).
Where two headings read alike, the source gives them in different places.

Experiments:
OAT3 = biological target: T1, OAT3 (Homo sapiens, UniProt Q8TCC7); assay: In vitro transporter inhibition, OAT3; assay type: in vitro ADME
T1 sequence (Q8TCC7 1-542): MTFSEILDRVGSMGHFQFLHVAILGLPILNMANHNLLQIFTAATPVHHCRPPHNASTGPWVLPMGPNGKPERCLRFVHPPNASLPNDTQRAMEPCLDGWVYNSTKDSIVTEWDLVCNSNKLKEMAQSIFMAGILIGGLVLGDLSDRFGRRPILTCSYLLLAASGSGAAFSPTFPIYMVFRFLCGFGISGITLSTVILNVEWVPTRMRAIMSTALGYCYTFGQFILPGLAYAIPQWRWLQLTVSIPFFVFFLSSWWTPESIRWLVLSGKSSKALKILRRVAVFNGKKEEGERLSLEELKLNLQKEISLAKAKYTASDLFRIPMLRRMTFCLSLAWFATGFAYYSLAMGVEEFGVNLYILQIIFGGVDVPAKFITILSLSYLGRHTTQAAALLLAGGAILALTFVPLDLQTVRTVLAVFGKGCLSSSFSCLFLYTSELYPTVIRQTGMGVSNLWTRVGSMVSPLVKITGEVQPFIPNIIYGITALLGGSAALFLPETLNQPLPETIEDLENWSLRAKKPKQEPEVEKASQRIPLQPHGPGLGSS
Description: However, based on PBPK modeling, no interaction with OAT substrates is expected at clinically relevant concentrations.

[1] = test system: recombinant HIV-1 strain NL432 viruses; assay type: cell-based

## C[C@H]1CO[C@@H]2Cn3cc(C(=O)NCc4ccc(F)cc4F)c(=O)c(O)c3C(=O)N12 [Cabotegravir, (3S,11aR)-N-[(2,4-difluorophenyl)methyl]-6-hydroxy-3-methyl-5,7-dioxo-2,3,5,7,11,11a-hexahydro[1,3]oxazolo[3,2-a]pyrido[1,2-d]pyrazine-8-carboxamide]
OAT3
  IC50: 410 nM
[1]
  activity against viruses with NNRTI substitutions K103N or Y188L, or NRTI substitutions M184V, D67N/K70R/T215Y, or V751/F77L/F116Y/Q151M: active
[1]; E138K+Q148K
  reduction in susceptibility: 81 fold
[1]; Q148R+N155H
  reduction in susceptibility: 61 fold
